Article PMC8143291, “Cytotoxicity and Microbicidal Activity of Commonly Used Organic Solvents: A Comparative Study and Application to a Standardized Extract from Vaccinium macrocarpon” (Toxics, 2021)

Legend:
Assay in all cases: Broth microdilution MIC/MBC
[1] = test system: P. aeruginosa ATCC 27853; assay type: cell-based, Pseudomonas aeruginosa; settings: 24 h exposure; v/v; n = 3
Source text: (§1) The bacterial strains used for AST of the solvents included: Staphylococcus aureus (ATCC 29213), Staphylococcus aureus—MRSA (NBIMCC 8327—resistant to methicillin and oxacillin, National Bulgarian Collection for Industrial Microorganisms and Cell Cultures, Sofia, Bulgaria), Streptococcus pyogenes (SAIMC 10535, Collection of the Stephan Angeloff Institute of Microbiology, Sofia, Bulgaria), Enterococcus faecalis (ATCC 29212), Escherichia coli (ATCC 35218), Pseudomonas aeruginosa (ATCC 27853), and Yersinia enterocolitica (IP864 O:3, Collection of Institut Pasteur, Paris, France). The selected strains are the most often investigated ones in the AST research studies in correspondence with the standard ISO 20776-1 Part 1: Reference method for testing the in vitro activity of antimicrobial agents against rapidly growing aerobic bacteria involved in infectious diseases. The antimycotic activity was tested on Candida albicans (CBS 562, Utrecht, The Netherlands). The strains S. aureus, MRSA, E. coli and E. faecalis were grown on Mueller–Hinton broth/agar (MHB/MHA); S. pyogenes, P. aeruginosa, Y. enterocolitica and C. albicans were grown on brain heart infusion (BHI) broth/agar; E. coli was also grown on Luria–Bertani broth/agar (LBB/LBA).
(§2) The minimum inhibitory concentration (MIC) for each solvent was estimated by the broth microdilution method (BMD) in 96-well microplates, following ISO 20776/1-2006 [3] and CLSI protocols. Briefly, a standardized bacterial inoculum was prepared from each bacterial species by suspending 3–4 colonies from a pure culture into 4 mL sterile saline. The turbidity of the inocula was adjusted to McFarland 0.5 (1.0 × 10^8 CFU/mL, λ = 600 nm), and 50 µL were resuspended in 10 mL of the appropriate culture medium for each strain. The bacterial inocula were added to microtiter trays containing equivalent volumes of medium loaded with the relevant solvent in concentrations varying from 0.025 to 25% volume fraction. The final volume of each sample was 100 µL/well. The plates were incubated at 37 °C for 24 h. The pure culture medium served as a negative control. Every MIC was evaluated visually as the lowest concentration without visible growth. […] MBC was defined as the lowest compound’s concentration reducing the colony growth of the initial bacterial inoculum by ≥ 99.9%.

[2] = test system: E. coli ATCC 35218; assay type: cell-based, Escherichia coli; settings: 24 h exposure, v/v, n = 3
Source text: as §1, §2

[3] = test system: S. pyogenes SAIMC 10535; assay type: cell-based, Streptococcus pyogenes; settings: 24 h exposure; v/v; n = 3
Source text: as §1, §2

[4] = test system: Candida Albicans SAIMC 562; assay type: cell-based; settings: 24 h exposure; v/v; n = 3
Source text: as §1, with “The antimycotic activity was tested on Candida albicans (CBS 562, Utrecht, The Netherlands).” left out
as §2

[5] = test system: E. faecalis ATCC 29212; assay type: cell-based, Enterococcus faecalis; settings: 24 h exposure; v/v; n = 3
Source text: as §1, §2

[6] = test system: S. Aureus MRSA NBIMCC 8327; assay type: cell-based, Staphylococcus aureus; settings: 24 h exposure; v/v; n = 3
Source text: as §1, §2

[7] = test system: S. Aureus ATCC 29213; assay type: cell-based, Staphylococcus aureus; settings: 24 h exposure; v/v; n = 3
Source text: as §1, §2

[8] = test system: Y. enterocolitica IP 864 O: 3; assay type: cell-based, Yersinia enterocolitica; settings: 24 h exposure; v/v; n = 3
Source text: as §1, §2

Q: “polyethylene glycol of average molecular weight 400 [PEG-400]” was tested. Which MBC [1] did it give?
A: >25%

Q: What about the MIC [1] of the same compound?
A: 25%

Q: What about the MBC ([2]; in LBB) of the same compound?
A: >25%

Q: And the MIC ([2]; in LBB)?
A: 25%

Q: What about the MBC ([2]; in MHB) of the same compound?
A: >25%

Q: What about the MIC ([2]; in MHB) of the same compound?
A: >25%

Q: What about the MBC [3] of the same compound?
A: >25%

Q: What about the MIC [3] of the same compound?
A: 25%

Q: And the MBC [4]?
A: >25%

Q: And the MIC [4]?
A: >25%

Q: And the MBC [5]?
A: >25%

Q: And the MIC [5]?
A: 25%

Q: And the MBC [6]?
A: 25%

Q: What about the MIC [6] of the same compound?
A: 25%

Q: And the MBC [7]?
A: >25%

Q: What about the MIC [7] of the same compound?
A: >25%

Q: And the MBC [8]?
A: 12.5%

Q: What about the MIC [8] of the same compound?
A: 12.5%

Q: With CCO [EtOH, ethanol] as the compound, how does the MBC [1] read?
A: >25%

Q: And the MIC [1]?
A: >25%

Q: And the MBC ([2]; in LBB)?
A: >25%

Q: And the MIC ([2]; in LBB)?
A: >25%

Q: And the MBC ([2]; in MHB)?
A: >25%

Q: And the MIC ([2]; in MHB)?
A: >25%

Q: And the MBC [3]?
A: >25%

Q: What about the MIC [3] of the same compound?
A: >25%

Q: What about the MBC [4] of the same compound?
A: >25%

Q: What about the MIC [4] of the same compound?
A: >25%

Q: What about the MBC [5] of the same compound?
A: >25%

Q: And the MIC [5]?
A: >25%

Q: And the MBC [6]?
A: >25%

Q: What about the MIC [6] of the same compound?
A: >25%

Q: And the MBC [7]?
A: >25%

Q: And the MIC [7]?
A: >25%

Q: And the MBC [8]?
A: >25%

Q: And the MIC [8]?
A: >25%

Q: How did the MBC [1] turn out when C[S+](C)[O-] [DMSO, dimethyl sulfoxide] was run?
A: >25%

Q: And the MIC [1]?
A: 6.25%

Q: And the MBC ([2]; in LBB)?
A: >25%

Q: What about the MIC ([2]; in LBB) of the same compound?
A: 12.5%

Q: And the MBC ([2]; in MHB)?
A: >25%

Q: What about the MIC ([2]; in MHB) of the same compound?
A: 12.5%

Q: And the MBC [3]?
A: >25%

Q: What about the MIC [3] of the same compound?
A: 12.5%

Q: And the MBC [4]?
A: 6.25%

Q: What about the MIC [4] of the same compound?
A: 6.25%

Q: And the MBC [5]?
A: >25%

Q: What about the MIC [5] of the same compound?
A: 12.5%

Q: And the MBC [6]?
A: >25%

Q: And the MIC [6]?
A: 25%

Q: What about the MBC [7] of the same compound?
A: >25%

Q: What about the MIC [7] of the same compound?
A: 25%

Q: And the MBC [8]?
A: 6.25%

Q: What about the MIC [8] of the same compound?
A: 3.125%
